Measurements reported in patent US20090298150A1, “PRODUCTION OF SQUALENE USING YEAST” (priority 2008, published 2009).

Key:
[1] = test system: Yarrowia lipolytica ATCC 90904; test: Cultivation of Yarrowia lipolytica in CYM001 media with supplements; squalene and lipid production; type: cell-based; conditions: 30° C., 300 rpm, 120 h
Description: Environmental manipulations are tested to increase the net yield of squalene. These include (a) inhibiting ACCase expression and/or activity with oleic acid, olive or other vegetable oil(s), inositol, choline, soraphen, fluazifop, and clethodim or other ACCase inhibiting herbicides, (b) inhibiting squalene epoxidase expression and/or activity with terbinafine, tolnaftate, and ergosterol or other squalene epoxidase inhibiting fungicides, (c) manipulating the C/N ratio in glycerol-based media (in the starting media or by add-ins), (d) varying the nitrogen source in the media (organic vs. inorganic vs. simple/complex), (e) varying carbon addition regimes (e.g. batch vs. feeding), (f) examining the effect of depleting nutrients other than carbon source, (g) varying the carbon source to include mixtures of sugars, sugar alcohols, alcohols, polyalcohols, and organic acids, (h) selecting for growth on HMGR-inhibitory compounds such as lovastatin or other statin-type inhibitors, and (i) selecting for high oil production in culture using lipophillic dyes or stains and/or by analyzing for extractable lipids using, for example, gravimetric or gas chromatographic methods.
For example, Yarrowia lipolytica ATCC 90904 was cultivated in high Carbon/Nitrogen ratio media (C/N=420, Li, Y-H., Liu, B., Zhao, Z-B., and Bai, F-W. 2006 “Optimized Culture Medium and Fermentation Conditions for Lipid Production by Rhodosporidium toruloides” Chinese Journal of Biotechnology 22(4): 650-656) (hereinafter “CYM001 Media”) supplemented with 0 to 50 μg/ml terbinafine at 30° C., 300 rpm for 120 h. […]
In a further example, Yarrowia lipolytica ATCC 90904 was cultivated in CYM001 media supplemented with 0 to 200 μM clethodim at 30° C., 300 rpm for 120 h.

[2] = test system: Cryptococcus curvatus; test: Cryptococcus curvatus growth on carbon sources (cell mass in culture); conditions: 12% w/v glycerol; Yeast Extract-based rich media; after 5 days
Description: Cryptococcus curvatus growth was evaluated to determine the best carbon sources to maximize its cell mass in culture. In a Yeast Extract-based rich media (10 g/L yeast extract, 20 g/L peptone), C. curvatus grew well in 2-20% w/v glucose, achieving a maximal level of 55 g/L cell dry weight (CDW) at 16% w/v glucose and above after 4 days. Similarly, C. curvatus grew in the same media with 3-12% w/v glycerol, achieving a CDW of 40 g/L in 12% w/v glycerol after 5 days. C. curvatus was also grown in Biodiesel glycerol (Imperial Western Products, Coachella, Calif.) up to 3.5% w/v, resulting in 23 g/L CDW.

## CCCCCCCC/C=C\CCCCCCCC(=O)O [Oleic acid]
[1]; 10 μl/ml Oleic acid, CYM001 media
  lipid accumulation, % lipid/CDW (cell dry weight): 63.3 % lipid/CDW

## CCSC(C)CC1CC(=O)C(/C(CC)=N/OC/C=C/Cl)=C(O)C1 (stereo not shown) [clethodim]
[1]; 200 μM clethodim, CYM001 media
  increase in the yield (mg) of squalene per 60-ml flask: 60 fold

## OCC(O)CO [glycerol]
[2]
  cell dry weight (CDW): 40 g/L

## CN(C/C=C/C#CC(C)(C)C)Cc1cccc2ccccc12 [terbinafine]
[1]; 12.5 μg/ml or higher terbinafine, CYM001 Media
  squalene as % of total lipid: up to 18.5%
